The test concerns the target T1, growth hormone secretagogue receptor (Homo sapiens, UniProt Q92847).
T1 construct: expressed in transfected cells; host or cells: HEK 293 (EBNA) cells, membrane preparation
Nature of the test: Saturation binding assay using T-MK0677 on transfected HEK 293 (EBNA) cell membranes. The method, then:
Human Embryonic Kidney HEK 293 (EBNA) cells were grown in suspension and transfected according to the method previously described (Schlaeger and Christensen, Cytotechnology, 30, 71-83, 1999). The cells were centrifugated for 10 min at 500 rpm, washed once with PBS-0.7 mM EDTA/(4° C.) and resuspended in PBS-EDTA-PI (with Protease inhibitor cocktail), at 2 ml/g of cells. Cells were broken with Ultra Turax level green 3×15″ with 30″ breaks on ice. To remove debris the suspension was centrifugated in a Sorvall SS34 rotor for 20 min at 2,000 rpm. The supernatant was collected and centrifugated for 40 min at 20,000 rpm. The pellet was resuspended in PBS-EDTA. Receptor density was verified with saturation binding assay using T-MK 0677 to be 4.9 pmol/mg protein.
The membrane was resuspended in Binding buffer (25 mM Hepes, pH 7.4, 25 mM MgCl2, 1 mM CaCl2, 0.1% BSA, 0.03% Bacitracine (protease inhibitor)) to 0.1 to 2 μg/well. […]
A filter plate (Packard GF/B unifilter plate) was treated with 50 μL/well 0.5% polyethyleneimine (PEI) in PBS for 15 min. […] Then 50 μL of Microscint 0 were added per well and the T decay counted in a topcount from Packard Instruments.

T1 sequence (Q92847 whole entry): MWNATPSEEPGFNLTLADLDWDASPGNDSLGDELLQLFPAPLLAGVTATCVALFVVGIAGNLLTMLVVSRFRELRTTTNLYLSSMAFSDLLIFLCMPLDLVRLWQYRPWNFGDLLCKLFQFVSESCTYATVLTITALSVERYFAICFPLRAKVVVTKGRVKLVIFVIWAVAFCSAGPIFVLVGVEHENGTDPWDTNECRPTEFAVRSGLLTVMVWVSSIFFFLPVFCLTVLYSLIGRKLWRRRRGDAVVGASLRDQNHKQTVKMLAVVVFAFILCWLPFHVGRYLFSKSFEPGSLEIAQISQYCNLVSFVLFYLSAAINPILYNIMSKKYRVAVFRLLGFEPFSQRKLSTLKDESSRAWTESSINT

“tris-tritiated-2-amino-N-[(1R)-2-[1,2-dihydro-1-(methylsulfonyl)spiro[3H-indole-3,4′-piperidin]-1′-yl]-2-oxo-1-[(phenylmethoxy)methyl]ethyl]-2-methyl-, monomethanesulfonate [T-MK 0677]” gave a Receptor density of 4.9 pmol/mg protein.

For the origin of these results see patent publication US20060204436A1, “Tritiated growth hormone secretagogue mk-0677” (priority 2003, published 2006).
